NC(=O)N1c2ccccc2C=Cc2ccccc21
Details | solubility (mole fraction)
in chloroform, 278.15 K | 0.0577
in chloroform, 288.65 K | 0.0627
in chloroform, 297.55 K | 0.0679
in chloroform, 307.15 K | 0.0756
in chloroform, 318.95 K | 0.086
in chloroform, 327.95 K | 0.0968
in cyclohexylamine, 287.25 K | 0.0149
in cyclohexylamine, 302.35 K | 0.0193
in cyclohexylamine, 317.65 K | 0.0259
in cyclohexylamine, 332.85 K | 0.0353
in cyclohexylamine, 348.15 K | 0.05
in cyclohexylamine, 366.15 K | 0.0657
in ethyl acetate, 281.35 K | 0.00272
in ethyl acetate, 298.55 K | 0.00436
in ethyl acetate, 306.55 K | 0.00548
in ethyl acetate, 314.05 K | 0.0068
in ethyl acetate, 326.85 K | 0.00959
in ethyl acetate, 346.65 K | 0.0142
in ethylene glycol, 279.15 K | 0.00098
in ethylene glycol, 288.55 K | 0.00243
in ethylene glycol, 316.85 K | 0.00861
in ethylene glycol, 335.25 K | 0.0189
in ethylene glycol, 346.55 K | 0.0294
in ethylene glycol, 356.95 K | 0.0429
in methyl acetate, 281.95 K | 0.00521
in methyl acetate, 292.35 K | 0.00665
in methyl acetate, 301.85 K | 0.00843
in methyl acetate, 311.55 K | 0.0109

— BigSolDB 2.1
